For data set [1], the system named is HEK293. As to the kind of experiment: Substrate activity at human OCT1*6 allele mutant expressed in HEK293 cells assessed as increase in compound uptake at 0.1 uM incubated for 2 mins by LC-MS/MS analysis relative to control empty vector transfected cells. The format is cell-based.
Data set [2] deals with T1, Solute carrier family 22 member 1 (Homo sapiens, UniProt O15245).
T1 sequence (O15245 whole entry): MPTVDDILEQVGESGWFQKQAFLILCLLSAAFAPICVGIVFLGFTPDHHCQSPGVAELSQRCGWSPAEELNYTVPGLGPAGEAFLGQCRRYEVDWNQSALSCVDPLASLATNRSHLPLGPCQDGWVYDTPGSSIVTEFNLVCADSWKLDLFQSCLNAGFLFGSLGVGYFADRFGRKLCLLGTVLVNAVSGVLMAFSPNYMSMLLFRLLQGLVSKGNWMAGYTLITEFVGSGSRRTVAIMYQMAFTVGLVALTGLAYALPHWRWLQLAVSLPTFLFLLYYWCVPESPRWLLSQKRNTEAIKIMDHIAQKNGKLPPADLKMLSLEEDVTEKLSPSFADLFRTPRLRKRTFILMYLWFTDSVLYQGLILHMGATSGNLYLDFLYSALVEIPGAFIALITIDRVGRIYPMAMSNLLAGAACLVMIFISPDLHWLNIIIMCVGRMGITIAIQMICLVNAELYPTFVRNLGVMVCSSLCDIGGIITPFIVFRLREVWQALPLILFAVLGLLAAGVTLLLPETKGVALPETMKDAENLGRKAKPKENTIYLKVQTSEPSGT
As to the kind of experiment: Inhibition of human OCT1 expressed in HEK293 cells assessed as reduction in ASP+ substrate uptake by microplate reader based analysis. The format is cell-based.

The test system of data set [3] is HEK293. Description: Substrate activity at human OCT1*5 allele mutant expressed in HEK293 cells assessed as increase in compound uptake at 0.1 uM incubated for 2 mins by LC-MS/MS analysis relative to control empty vector transfected cells. Type of data set: cell-based.
Data set [4] has as its system HEK293. As to the kind of experiment: Substrate activity at human OCT1*7 allele mutant expressed in HEK293 cells assessed as increase in compound uptake at 0.1 uM incubated for 2 mins by LC-MS/MS analysis relative to control empty vector transfected cells. Type of data set: cell-based.
A short description of data set [5]: Unbound maximal portal vein concentration of in human at 450 mg, po. Type of data set: ADME, tissue-based. The note with it: in vivo.
Data set [6] can be described thus: Cmax in human at 450 mg, po. The format is ADME. Set-up: dose 450 mg, route oral. Particulars: in vivo.
Data set [7] can be described thus: Intrinsic clearance in human liver microsomes. The note with it: read-out: CLH. Type of data set: ADME, Microsome. On the technique in general: Microsomes from liver hold many membrane-bound enzymes, among them those of drug oxidation.
Another data set concerns the target T2, OCT1 (SLC22A1) (Homo sapiens, UniProt O15245).
T2 sequence (O15245 whole entry): T1 sequence (O15245 whole entry)
As to the kind of experiment: Substrate activity at human OCT1 expressed in HEK293 cells assessed as increase in compound uptake by measuring Km incubated for 2 mins by LC-MS/MS analysis based Michaelis-Menten plot analysis relative to control empty vector transfected cells. The note with it: HEK293 cells that express human OCT1. Type of data set: cell-based.

In data set [8] the test system is HEK293. As to the kind of experiment: Substrate activity at human OCT1*4 allele mutant expressed in HEK293 cells assessed as increase in compound uptake at 0.1 uM incubated for 2 mins by LC-MS/MS analysis relative to control empty vector transfected cells. Type of data set: cell-based.
The subject of data set [9] is HEK293. Description: Substrate activity at human OCT1*8 allele mutant expressed in HEK293 cells assessed as increase in compound uptake at 0.1 uM incubated for 2 mins by LC-MS/MS analysis relative to control empty vector transfected cells. Type of data set: cell-based.
The nature of data set [10]: Unbound Cmax in human at 450 mg, po. The format is ADME. Particulars: in vivo.
Data set [11] concerns HEK293. Description: Substrate activity at human OCT1*3 allele mutant expressed in HEK293 cells assessed as increase in compound uptake at 0.1 uM incubated for 2 mins by LC-MS/MS analysis relative to control empty vector transfected cells. Type of data set: cell-based.
In data set [12] the test system is HEK293. As to the kind of experiment: Substrate activity at human OCT1*2 allele mutant expressed in HEK293 cells assessed as increase in compound uptake at 0.1 uM incubated for 2 mins by LC-MS/MS analysis relative to control empty vector transfected cells. Type of data set: cell-based.
The target in data set [13] is T1, Solute carrier family 22 member 1. Description: Substrate activity at human OCT1 expressed in HEK293 cells assessed as increase in compound uptake by measuring Vmax incubated for 2 mins by LC-MS/MS analysis based Michaelis-Menten plot analysis relative to control empty vector transfected cells. Type of data set: cell-based. Particulars: hek293, 2 min.
Data set [14] can be described thus: Cmax in human at 50 mg, po dosed as slow release formulation. Particulars: in vivo.
Data set [15] is described as follows: Cmax in human at 10 mg, po dosed as immediate release formulation. The note with it: in vivo.
A short description of data set [16]: Cmax in human at 10 mg, im. Particulars: in vivo.
Data set [17] in a line: Cmax in human at 10 mg, iv. The note with it: in vivo.
In data set [18] the target is T1, Solute carrier family 22 member 1. As to the kind of experiment: Substrate activity at OCT1 in primary human hepatocytes assessed as increase in compound uptake at 0.1 uM incubated for 2 mins by LC-MS/MS analysis relative to control. The format is cell-based.
A short description of data set [19]: Unbound maximal portal vein concentration of in human at 4 mg, po. Type of data set: ADME, tissue-based. Particulars: in vivo.
Data set [20] is described as follows: Unbound Cmax in human at 4 mg, po. The format is ADME. The note with it: in vivo.
The nature of data set [21]: Cmax in human at 4 mg, po. The format is ADME. The arrangement: dose 4 mg, route oral. The note with it: in vivo.

Structures are written as SMILES. Calls of active or inactive are those of the source. No cut-off for these calls is given here.

By IC50 is commonly meant the concentration at which inhibition is half-maximal. Usually Cmax stands for the highest concentration seen after dosing. The Km is the substrate concentration at which the rate is half of its maximum. What is called Vmax is the top rate of the reaction or transport when substrate is in excess. On to `C[N+]1(CC2CC2)CC[C@]23c4c5ccc(O)c4O[C@H]2C(=O)CC[C@@]3(O)[C@H]1C5` (stereo not given in full) [METHYLNALTREXONE], for which the outcome with HEK293 [1], with HEK293 [3], in the data set on HEK293 [8], in the data set with HEK293 [11] and in the data set with HEK293 [12] was inactive. Moreover, the IC50 in data set [2] is 234 µM. Also, the outcome with HEK293 [4] and in the data set on HEK293 [9] was Active. In addition, the fCmax amounted to 64.93 µM in data set [5] and 0.12 µM in data set [10]. Besides, in data set [6], the peak concentration (Cmax) worked out at 140 nM. Further, the microsomal CLint in data set [7] worked out at 32 µL/min/mg. Moreover, at OCT1 (SLC22A1), the Km at 2 min fell in the range of 20 to 20.3 µM. Also, the Vmax in [13] came to 371.9 pmol/min/mg.

Take `CN1CC[C@]23c4c5ccc(O)c4O[C@H]2[C@@H](O)C=C[C@H]3[C@H]1C5` [MORPHINE]: in [2], the IC50 lay within 71.8 to 72 µM. The Cmax in [14] is 30 nM; in data set [15], 40 nM; in [16] it was 250 nM; in [17], 1050 nM.

`CN1CC[C@]23c4c5ccc(O)c4O[C@H]2C(=O)CC[C@H]3[C@H]1C5` [HYDROMORPHONE]: the result in the data set on HEK293 [1], in the data set on HEK293 [8], in the data set with HEK293 [11] and with HEK293 [12] was inactive. In addition, in [2], the IC50 was determined as 138 µM. In addition, the outcome with HEK293 [4] and in the data set on HEK293 [9] was Active. The “fold change (FC)” value in data set [18] was found to be 1.7. For the same molecule, the fCmax in data set [19] came to 0.72 µM; in [20] it was 0.03 µM. Also, the Cmax in [21] was found to be 40 nM.

The values are drawn from ChEMBL document CHEMBL4321821, “Opioids as Substrates and Inhibitors of the Genetically Highly Variable Organic Cation Transporter OCT1” (J Med Chem, 2019).
